US5674977A, “Branched synthetic peptide conjugate” (The Ontario Cancer Institute, priority 1994, dated 1997)
Numbered stars: 1 amine (or outer) side, 2 acyl side, 3 side chain; on linkers, the order of the positions; unused ones are H or OH. Square brackets hold non-standard residues; d marks the D form. Peptide text beside a SMILES is read from it. X1 = C[C@@H](O)[C@@H](C(=O)[*:2])N(c1c2ccccc2nc2ccccc12)[*:1]

Tested on: CHO cells
Experiment: MTT cell viability (cytotoxicity) assay
Assay type: cell-based, Chinese hamster
Conditions: concentrations as high as 100 μM, 2 hour incubation period
Excerpt: The cytotoxicity of peptide 1 and octopeptides 2-5 was established in Chinese hamster ovary (CHO) cells in order to select a minimal octopeptide concentration suitable for detecting the constructs by flow cytometry and fluorescence microscopy on live cells. The cytotoxicity of each construct was established using the MTT cell viability assay (FIG. 1; Mosmann, 1983). […] Linear polymers having a mass of less than 13 kDa were shown not to be cytotoxic to HeLa cells (Arnold et al., 1979). […] At a concentration of 1 μM, none of the octopeptides were cytotoxic to CHO cells (FIG. 1). […] The penetration and localization of acridine and rhodamine chromophores in viable CHO cells were observed during fluorescence microscopy and flow cytometry experiments by exposing cells to concentrations of octopeptides ranging from 0.1 to 1 μM. […]
The quantitative MTT colorimetric assay developed by Mosmann (1983) was used to determine the toxicity of peptide constructs of the invention toward CHO cells. […] The blue MTT formazan product generated by living cells was quantified by measuring the optical density of the cellular extract at 620 nm. […] Absorbance values were translated into measurements of cell viability and reflect the average of experiments performed in triplicate.

CC(C)[C@H](NC(=O)[C@H](CCCCN)NC(=O)[C@H](CCCNC(=N)N)NC(=O)[C@H](CCCCN)NC(=O)[C@H](CCCCN)NC(=O)[C@H](CCCCN)NC(=O)[C@@H]1CCCN1C(=O)[C@@H]1CCCN1C(=O)[C@@H](Nc1c2ccccc2nc2ccccc12)[C@@H](C)O)C(=O)N[C@@H](CCC(=O)O)C(=O)N[C@@H](CC(=O)O)C(=O)N1CCC[C@H]1C(=O)N[C@@H](CCCCN)C(=O)N[C@@H](CCCCN)C(=O)N[C@@H](CCCCN)C(=O)N[C@@H](CCCCN)C(=O)N[C@@H](CCCCN)C(=O)O [peptide 1, Acr-NLS-CTS] (H-[X1]PPKKKRKVEDPKKKKK-OH)
toxicity to CHO cells: not toxic
